# Data reported in patent US9403866B2, “Compositions and methods for increasing telomerase activity” (Telomerase Activation Sciences, Inc., priority 2009, dated 2016).
# Like-named read-outs stand apart in the source and are kept apart here.
# Tests used:
# telomerase [1] = biological target: T1, telomerase (Homo sapiens, UniProt O14746); test: Keratinocyte cell/TRAP assay (HEKneo-P cells); type: cell-based; set-up: host or cells: HEKneo-P (pooled neonatal human epidermal keratinocytes)
# Text: Harley et al., U.S. Pat. […] Harley et al., U.S. Pat. […] Non-treatment control (NT) was also included. […]
# telomerase [2] = biological target: T1, telomerase; test: Peripheral blood monocyte cell (PBMC)/TRAP assay; type: cell-based; set-up: host or cells: HEKneo-P (pooled neonatal human epidermal keratinocytes); conditions: 24 hours
# Text: Cell lines suitable for use in the assay, normal human peripheral blood mononuclear cells (PBMCs) or Human Epidermal Keratinocytes (neonatal) (HEKs), can be obtained from commercial sources, such as Cascade Biologics, Portland, Oreg. or 4C Biotech, Seneffe, Belgium, or from the ATCC (American Type Culture Collection). ATCC normal human fibroblast cell lines, which can be located on the ATCC web site, include for example, CCL135, CCL137, and CCL151.
# PBMC Isolation. Blood was collected in sodium heparin vacutainers and pooled into a single 50 mL polypropylene tube. Blood was diluted 1:1 with 1×PBS and mixed thoroughly by inversion. 25 mL of diluted blood was layered over 12 mL of Lympholyte-H (Cedarlane Laboratories) and centrifuged at room temperature for 20 min at 800 g. […]
# Culture Conditions. The cells were counted using Trypan Blue exclusion and resuspended in complete media that is supplemented with 50 Units of hIL-2/mL so that final concentration of cells is 1×10^6/mL. […] At least once a week, cells are counted and media level is adjusted to keep cells around 5—10^5/mL. […]
# Treatment with Analogs. After 10-14 days in culture, cells were counted and resuspended in conditioned media at a concentration of 1×10^6/mL. […]
# TRAP Reaction and Gel. Samples were analyzed using a 1-step TRAP PCR reaction. […]
# [3] = Plasma levels and bioavailability in rats; conditions: male, Sprague Dawley, rat, in vivo, po, 10 mg/kg
# Procedure: The plasma levels of a compound following a single intravenous and oral administration in carotid artery-cannulated male Sprague Dawley rats was determined. Plasma samples were collected and used to determine the plasma concentration of the compound and metabolites. In addition tissue samples, including whisker samples and PBMC cells were collected for telomerase activity analysis.
# Carotid artery-cannulated male Sprague Dawley rats were divided into treatment groups according to Table 6. The rats were provided ad libitum SLAC-MO1 # YY080208 (Shanghai Laboratories Animal Center, Shanghai, China) throughout the in-life portion of the study with the exception of the overnight fasting period prior to oral dosing. Water was available ad libitum.
# The compounds were dissolved in 2% EtOH/98% water to yield a final concentration of 2.5 mg/ml and 1 mg/ml for both intravenous and oral administration, respectively. The concentration of each compound was confirmed by HPLC analysis.
# Body weights were taken on the day of dose administration. Dose volume was determined based on individual body weight taken on day of dosing.
# Blood samples (approximately 250 μL) were collected via cannulae into tubes containing K2-EDTA anticoagulant and 1 mg/ml NaF at the various time points. Blood was stored on ice and then plasma separated via centrifugation (8000 rpm×6 minutes). The plasma was stored at […] until LC-MS/MS analysis.
# Percentage of bioavailability was calculated.
# [4] = set-up: species or system male Beagle dogs; conditions: male, Beagle, dog, in vivo, po, 10 mg/kg
# Procedure: The plasma level of a compound following a single intravenous and oral administration in male Beagle dogs was determined. Plasma samples were collected and used to determine the plasma concentration of the compound and metabolites. In addition tissue samples, including whisker samples and PBMC cells were collected for telomerase activity analysis.
# Male Beagle dogs were divided into treatment groups according to Table 5. The dogs were provided ad libitum SLAC-MO1 #W080701 (Shanghai Laboratories Animal Center, Shanghai, China) throughout the in-life portion of the study with the exception of the overnight fasting period prior to oral dosing. Water was available ad libitum.
# The compounds were dissolved in 2% EtOH/98% water […] to yield a final concentration of 2.5 mg/ml and 1 mg/ml for both intravenous and oral administration, respectively. The concentration of each compound was confirmed by HPLC analysis.
# Doses were administered intravenously via the left femoral vein and then by oral dosing one week later. Body weights were taken on the day of dose administration. Dose volume was determined based on individual body weight taken on day of dosing.
# Blood samples (approximately 250 μL) were collected via right femoral vein into tubes containing K2-EDTA anticoagulant and 1 mg/ml NaF at appropriate time points. Blood was stored on ice and then plasma separated via centrifugation (8000 rpm×6 minutes). The plasma was stored at […] until LC-MS/MS analysis.
# T1 sequence (O14746 whole entry): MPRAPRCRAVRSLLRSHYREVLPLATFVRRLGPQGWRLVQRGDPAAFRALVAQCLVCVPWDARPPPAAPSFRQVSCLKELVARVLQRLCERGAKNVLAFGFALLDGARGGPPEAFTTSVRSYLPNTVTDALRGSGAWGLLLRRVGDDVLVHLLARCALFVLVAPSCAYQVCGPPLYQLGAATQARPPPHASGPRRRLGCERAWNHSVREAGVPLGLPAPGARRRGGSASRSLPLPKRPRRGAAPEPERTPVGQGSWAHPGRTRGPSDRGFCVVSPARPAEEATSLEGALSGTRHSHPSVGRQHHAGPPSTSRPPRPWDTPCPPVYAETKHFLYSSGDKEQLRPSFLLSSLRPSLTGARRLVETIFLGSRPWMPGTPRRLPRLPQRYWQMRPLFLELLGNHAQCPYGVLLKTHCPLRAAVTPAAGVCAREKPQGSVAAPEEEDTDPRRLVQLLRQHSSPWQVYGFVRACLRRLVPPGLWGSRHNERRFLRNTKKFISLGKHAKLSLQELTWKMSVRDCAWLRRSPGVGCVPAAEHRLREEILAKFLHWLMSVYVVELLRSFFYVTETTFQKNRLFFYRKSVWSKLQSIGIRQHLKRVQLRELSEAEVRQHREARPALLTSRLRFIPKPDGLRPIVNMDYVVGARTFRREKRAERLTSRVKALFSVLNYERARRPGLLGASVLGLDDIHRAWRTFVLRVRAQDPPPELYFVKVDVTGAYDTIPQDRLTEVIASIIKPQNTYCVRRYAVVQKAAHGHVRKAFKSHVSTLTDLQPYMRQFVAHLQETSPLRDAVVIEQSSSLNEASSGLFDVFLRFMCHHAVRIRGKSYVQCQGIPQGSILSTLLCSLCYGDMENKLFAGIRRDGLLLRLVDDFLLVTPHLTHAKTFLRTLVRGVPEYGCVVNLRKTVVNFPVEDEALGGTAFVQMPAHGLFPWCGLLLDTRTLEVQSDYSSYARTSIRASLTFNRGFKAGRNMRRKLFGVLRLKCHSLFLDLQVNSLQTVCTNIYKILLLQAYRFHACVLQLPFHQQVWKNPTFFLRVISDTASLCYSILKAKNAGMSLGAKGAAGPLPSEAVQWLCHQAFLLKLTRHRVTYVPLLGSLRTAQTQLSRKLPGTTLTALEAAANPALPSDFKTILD
smiles,measurement,setting,value
"CC(C)(O)[C@@H]1CC[C@](C)([C@H]2[C@@H](O)C[C@@]3(C)[C@@H]4C[C@H](O)[C@H]5C(C)(C)[C@@H](O)CC[C@@]56C[C@@]46CC[C@]23C)O1 [Compound 2, 17-[5-(1-Hydroxy-1-methyl-ethyl)-2-methyl-tetrahydro-furan-2-yl]-4,4,13,14-tetramethyl-tetradecahydro-cyclopropa[9,10]cyclopenta[a]phenanthrene-3β,6α,16β-triol, reference compound]",Max fold increase of activity,telomerase [1],3.3 fold
same,Activity in in vitro HEK assay,"telomerase [1]; 24 hr, 0.01 to 10 μM, vs vehicle control at peak of full dose curve",+ (telomerase activation is 2 fold or more in comparison with vehicle control at the peak of the full dose curve.)
same,EC50,telomerase [1]; telomerase activation,30 nM
same,Fold increase at 1 μM,telomerase [2],1.6-20.7 fold
same,Bioavailability % F,[3],22.6%
same,Bioavailability % F,[4],3%
